From US8580825B2, “Oxadiazole inhibitors of leukotriene production” (Boehringer Ingelheim International GmbH, priority 2010, dated 2013)

Assays:
[1] = target: T1, recombinant human FLAP protein (Homo sapiens, UniProt P20292); assay: FLAP binding assay (Scintillation Proximity Assay, displacement of [125I]L-691,831); details: for IC50: read-out: FLAP SPA IC50
T1 construct: made in house; host or cells: Sf9 insect cells (100,000xg membrane fraction used)
T1 sequence (P20292 1-161): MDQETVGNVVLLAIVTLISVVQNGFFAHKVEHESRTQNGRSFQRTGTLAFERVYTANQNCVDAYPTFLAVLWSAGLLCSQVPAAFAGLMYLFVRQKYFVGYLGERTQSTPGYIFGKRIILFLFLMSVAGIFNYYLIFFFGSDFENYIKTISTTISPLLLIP
Experimental: Compounds are assessed for the ability to bind to FLAP in a binding assay that measures compound-specific displacement of an iodinated (^125I) FLAP inhibitor via a Scintillation Proximity Assay format (adapted from S. Charleson et al., Mol. Pharmacol., 1992, 41, 873-879).
Cell pellets produced from sf9 insect cells expressing recombinant human FLAP protein are resuspended in buffer A [15 mM Tris-HCl (pH 7.5), 2 mM MgCl2, 0.3 mM EDTA, 1 mM PMSF]. The cells are lysed with a Dounce homogenizer and the material is centrifuged at 10,000×g for 10 minutes. The supernatant is then collected and centrifuged at 100,000×g for 60 minutes. To prepare membrane protein for an assay, an aliquot of the 100,000×g pellet is resuspended in 1 ml of buffer A, Dounce homogenized, and finally subjected to polytron mixing (30 seconds). Membrane protein (25 μl, 5 μg) is mixed with WGA SPA beads (Amersham) and stirred for 1 h. […] (final concentrations: beads, 200 μg/well; protein, 5 μg/well; [^125I] probe, 0.08 nM/well (17 nCi/well). The plates are shaken for 2 h before reading on a Microbeta plate reader. Non-specific binding is determined by the addition of 10 μM cold L-691,831 compound.

[2] = test system: synthesis of LTB4 in human whole blood; assay: human whole blood LTB4 production inhibition assay; format: cell-based; details: calcimycin stimulated, read-out: hWB LTB4 IC50
Experimental: Compounds are additionally tested in a human whole blood assay to determine their ability to inhibit the synthesis of LTB4 in a cellular system. Compounds are combined with heparinized human whole blood and incubated for 15 minutes at 37° C. Calcimycin (20 μM final, prepared in phosphate-buffered saline, pH 7.4) is then added and the mixture is incubated for another 30 minutes at 37° C. The samples are centrifuged for 5 min at low speed (1500×g) and the plasma layer is removed. Plasma LTB4 concentrations are then measured using an antibody-based homogenous time-resolved fluorescence method (CisBio, Bedford, Mass.).

| IC50 [1] [nM] | IC50 [2] [nM] | inhibition at 1 µM ([1]; read-out: FLAP SPA inhibition at 1 uM) [%] | Compound |
| --- | --- | --- | --- |
| 10.9 | 490 |  | CC(C)C(C)(c1ccc(-c2cnc(N)nc2)nc1)c1noc(-c2cnc(N3CCNCC3)cn2)n1 (stereo not drawn) [Example 13, 5-[5-(3-methyl-2-{5-[5-(piperazin-1-yl)pyrazin-2-yl]-1,2,4-oxadiazol-3-yl}butan-2-yl)pyridin-2-yl]pyrimidin-2-amine] |
| 6.5 | 45 |  | CC(C)C(C)(c1ccc(-c2cnc(N)nc2)nc1)c1noc(-c2cnn(CC(F)F)c2)n1 (stereo not drawn) [Example 14, 5-[5-(2-{5-[1-(2,2-difluoroethyl)-1H-pyrazol-4-yl]-1,2,4-oxadiazol-3-yl}-3-methylbutan-2-yl)pyridin-2-yl]pyrimidin-2-amine] |
| 2.3 | 75 |  | CNc1cnc(-c2nc(C(C)(c3ccc(-c4cnc(N)nc4)nc3)C(C)C)no2)cn1 (stereo not drawn) [Example 15, 5-[5-(3-methyl-2-{5-[5-(methylamino)pyrazin-2-yl]-1,2,4-oxadiazol-3-yl}butan-2-yl)pyridin-2-yl]pyrimidin-2-amine] |
| 2.3 | 65 |  | CC(C)Nc1cnc(-c2nc(C(C)(c3ccc(-c4cnc(N)nc4)nc3)C(C)C)no2)cn1 (stereo not drawn) [Example 16, 5-[5-(3-methyl-2-{5-[5-(propan-2-ylamino)pyrazin-2-yl]-1,2,4-oxadiazol-3-yl}butan-2-yl)pyridin-2-yl]pyrimidin-2-amine] |
| 4.5 | 53 |  | CC(C)C(C)(c1ccc(-c2cnc(N)nc2)nc1)c1noc(-c2cnn(CCF)c2)n1 (stereo not drawn) [Example 17, 5-[5-(2-{5-[1-(2-fluoroethyl)-1H-pyrazol-4-yl]-1,2,4-oxadiazol-3-yl}-3-methylbutan-2-yl)pyridin-2-yl]pyrimidin-2-amine] |
| 2.7 | 83 |  | COCCN(C)c1cnc(-c2nc(C(C)(c3ccc(-c4cnc(N)nc4)nc3)C(C)C)no2)cn1 (stereo not drawn) [Example 18, 5-{5-[2-(5-{5-[(2-methoxyethyl)(methyl)amino]pyrazin-2-yl}-1,2,4-oxadiazol-3-yl)-3-methylbutan-2-yl]pyridin-2-yl}pyrimidin-2-amine] |
| 4.8 | 140 |  | CC(C)C(C)(c1ccc(-c2cnc(N)nc2)nc1)c1noc(-c2cnc(NC[C@@H](C)O)cn2)n1 (stereo partly drawn) [Example 19, (2R)-1-{[5-(3-{2-[6-(2-aminopyrimidin-5-yl)pyridin-3-yl]-3-methylbutan-2-yl}-1,2,4-oxadiazol-5-yl)pyrazin-2-yl]amino}propan-2-ol] |
| 4 | 140 |  | CC(C)C(C)(c1ccc(-c2cnc(N)nc2)nc1)c1noc(-c2cnc(NC(C)(C)CO)cn2)n1 (stereo not drawn) [Example 20, 2-{[5-(3-{2-[6-(2-aminopyrimidin-5-yl)pyridin-3-yl]-3-methylbutan-2-yl}-1,2,4-oxadiazol-5-yl)pyrazin-2-yl]amino}-2-methylpropan-1-ol] |
| 51.2 | 570 |  | CC(C)C(C)(c1ccc(-c2cnc(N)nc2)nc1)c1noc(-c2cn(C)cn2)n1 (stereo not drawn) [Example 21, 5-(5-{3-methyl-2-[5-(1-methyl-1H-imidazol-4-yl)-1,2,4-oxadiazol-3-yl]butan-2-yl}pyridin-2-yl)pyrimidin-2-amine] |
| 3.6 | 140 |  | CC(C)C(C)(c1ccc(-c2cnc(N)nc2)nc1)c1noc(-c2cnc(NC[C@H](C)O)cn2)n1 (stereo partly drawn) [Example 22, (2S)-1-{[5-(3-{2-[6-(2-aminopyrimidin-5-yl)pyridin-3-yl]-3-methylbutan-2-yl}-1,2,4-oxadiazol-5-yl)pyrazin-2-yl]amino}propan-2-ol] |
| 3.9 | 39 |  | COCCn1cc(-c2nc([C@@](C)(c3ccc(-c4cnc(N)nc4)nc3)C(C)C)no2)cn1 [Example 23, 5-{5-[(2R)-2-{5-[1-(2-methoxyethyl)-1H-pyrazol-4-yl]-1,2,4-oxadiazol-3-yl}-3-methylbutan-2-yl]pyridin-2-yl}pyrimidin-2-amine] |
| 170 | 990 |  | COCCn1cc(-c2nc([C@](C)(c3ccc(-c4cnc(N)nc4)nc3)C(C)C)no2)cn1 [Example 24, 5-{5-[(2S)-2-{5-[1-(2-methoxyethyl)-1H-pyrazol-4-yl]-1,2,4-oxadiazol-3-yl}-3-methylbutan-2-yl]pyridin-2-yl}pyrimidin-2-amine] |
| 520 | > 5000 |  | CC(C)C(C)(c1ccc(-c2cnc(N)nc2)nc1)c1noc(NCCO)n1 (stereo not drawn) [Example 25, 2-[(3-{2-[6-(2-aminopyrimidin-5-yl)pyridin-3-yl]-3-methylbutan-2-yl}-1,2,4-oxadiazol-5-yl)amino]ethanol] |
| 400 | 3900 |  | CC(C)C(C)(c1ccc(-c2cnc(N)nc2)nc1)c1noc(N2CCNCC2)n1 (stereo not drawn) [Example 26, 5-(5-{3-methyl-2-[5-(piperazin-1-yl)-1,2,4-oxadiazol-3-yl]butan-2-yl}pyridin-2-yl)pyrimidin-2-amine] |
| 7.5 | 71 |  | COCCNc1ccc(-c2nc(C(C)(c3ccc(-c4cnc(N)nc4)nc3)C(C)C)no2)nn1 (stereo not drawn) [Example 27, 6-(3-{2-[6-(2-aminopyrimidin-5-yl)pyridin-3-yl]-3-methylbutan-2-yl}-1,2,4-oxadiazol-5-yl)-N-(2-methoxyethyl)pyridazin-3-amine] |
| 3.8 | 72 |  | CC(C)n1cc(-c2nc(C(C)(c3ccc(-c4cnc(N)nc4)nc3)C(C)C)no2)cn1 (stereo not drawn) [Example 28, 5-[5-(3-methyl-2-{5-[1-(propan-2-yl)-1H-pyrazol-4-yl]-1,2,4-oxadiazol-3-yl}butan-2-yl)pyridin-2-yl]pyrimidin-2-amine] |
| 4 | 40 |  | CCn1cc(-c2nc(C(C)(c3ccc(-c4cnc(N)nc4)nc3)C(C)C)no2)cn1 (stereo not drawn) [Example 29, 5-(5-{2-[5-(1-ethyl-1H-pyrazol-4-yl)-1,2,4-oxadiazol-3-yl]-3-methylbutan-2-yl}pyridin-2-yl)pyrimidin-2-amine] |
| 12 | 160 |  | COCCOCCn1cc(-c2nc(C(C)(c3ccc(-c4cnc(N)nc4)nc3)C(C)C)no2)cn1 (stereo not drawn) [Example 30, 5-{5-[2-(5-{1-[2-(2-methoxyethoxy)ethyl]-1H-pyrazol-4-yl}-1,2,4-oxadiazol-3-yl)-3-methylbutan-2-yl]pyridin-2-yl}pyrimidin-2-amine] |
| 1.4 | 12 |  | CC(C)[C@](C)(c1ccc(-c2cnc(N)nc2)nc1)c1noc(-c2cnn(C3COC3)c2)n1 [Example 31, 5-{5-[(2R)-3-methyl-2-{5-[1-(oxetan-3-yl)-1H-pyrazol-4-yl]-1,2,4-oxadiazol-3-yl}butan-2-yl]pyridin-2-yl}pyrimidin-2-amine] |
| 17.3 | 860 |  | CC(C)C(C)(c1ccc(-c2cnc(N)nc2)nc1)c1noc(-c2ccc(NCC(C)(C)O)nn2)n1 (stereo not drawn) [Example 32, 1-{[6-(3-{2-[6-(2-aminopyrimidin-5-yl)pyridin-3-yl]-3-methylbutan-2-yl}-1,2,4-oxadiazol-5-yl)pyridazin-3-yl]amino}-2-methylpropan-2-ol] |
| 5.2 | 210 |  | CCOC(=O)C(C)(C)Cn1cc(-c2nc(C(C)(c3ccc(-c4cnc(N)nc4)nc3)C(C)C)no2)cn1 (stereo not drawn) [Example 33, ethyl 3-[4-(3-{2-[6-(2-aminopyrimidin-5-yl)pyridin-3-yl]-3-methylbutan-2-yl}-1,2,4-oxadiazol-5-yl)-1H-pyrazol-1-yl]-2,2-dimethylpropanoate] |
| 6.6 | 94 |  | CC(C)[C@](C)(c1ccc(-c2cnc(N)nc2)nc1)c1noc(-c2cnn(C(C)(C)CO)c2)n1 [Example 34, 2-[4-(3-{(2R)-2-[6-(2-aminopyrimidin-5-yl)pyridin-3-yl]-3-methylbutan-2-yl}-1,2,4-oxadiazol-5-yl)-1H-pyrazol-1-yl]-2-methylpropan-1-ol] |
| 210 | 3200 |  | CC(C)[C@@](C)(c1ccc(-c2cnc(N)nc2)nc1)c1noc(-c2cnn(C(C)(C)CO)c2)n1 [Example 35, 2-[4-(3-{(2S)-2-[6-(2-aminopyrimidin-5-yl)pyridin-3-yl]-3-methylbutan-2-yl}-1,2,4-oxadiazol-5-yl)-1H-pyrazol-1-yl]-2-methylpropan-1-ol] |
|  | > 5000 | 30 | Cc1ccc(C)n1-c1ncc(-c2ccc(C(C)(c3noc(-c4cn[nH]c4)n3)C(C)C)cn2)cn1 (stereo not drawn) [Example 36, 2-(2,5-dimethyl-1H-pyrrol-1-yl)-5-(5-{3-methyl-2-[5-(1H-pyrazol-4-yl)-1,2,4-oxadiazol-3-yl]butan-2-yl}pyridin-2-yl)pyrimidine] |
